Several values for one entry are separate records, joined by “and”; a condition that tells them apart may be missing. Equal values may be shown once.

The text below walks through data of patent US20050019426A1, “Use of an aqueous or hydroalcoholic extract from bauhinia for the preparation of a composition” (priority 2003, published 2005).

For this test, the system named is non-enzymatic incorporation of glucose into proteins (glycation) in human dermal fibroblasts (NDHF Pool PF2). Put plainly: Non-enzymatic incorporation of glucose into proteins (glycation) in fibroblasts (Example 5). The format is cell-based. The note with it: 1 mg/ml, 15 days. The procedure: Material: • human dermal fibroblasts (NDHF Pool PF2) • culture medium: DMEM, 2 mM glutamine, 50 Ul/ml of penicillin, 50 μg/ml of streptomycin, 10% foetal calf serum (Life Technologies) • dry extract of Bauhinia forficata according to Example 4 (aqueous extraction), dissolved in sterile PBS • final concentrations tested: 0.3 mg/ml, 0.1 mg/ml, 0.03 mg/ml • reference: aminoguanidine 1 mg/ml
Human dermal fibroblasts are cultivated to confluence in cell culture medium (see above) in 25 cm^2 plates at 37° C. and 5% CO2. Collagen synthesis is stimulated by cultivation of the cells in the presence of vitamin C (final concentration: 20 μg/ml) for 96 hours. The cells are washed with PBS and lysed by serial freezing/thawing. The cells are treated with aqueous extract of Bauhinia forficata or aminoguanidine (and control: PBS) and labelled with 20 μCi/ml D-[5-^3H]-glucose (19 Ci/mmol), 703 Gbq/mmol) in the presence of 0.1 mg/ml of glucose. The treatment and labelling are carried out without interruption for 15 days at 37° C. and 5% CO2. At the end of the incubation, proteins of the extracellular matrix (principally collagen) are extracted by buffer (TRIS 50 mM, 4M guanidine, 5 mM EDTA, pH 8.0, 30 min). The total protein is precipitated by 20% (v/v) trichloroacetic acid, 0.66 mg/ml of albumin. The precipitates are recovered by filtration from a Skatron collector and washed copiously, firstly in 3% trichloroacetic acid, then with 70% ethanol. The glucose covalently bonded to the fibres of the extracellular matrix is finally measured by scintillation.

Turning to `N=C(N)NN` [Aminoguanidine, aminoguanidine], the “reduction of glucose incorporation” value came to 85%. Also, the Mean cpm (n=3) is given as 3701 cpm. For the setting “single replicates”, the “cpm (glucose incorporated into proteins)” value is 2859 cpm and 3434 cpm and 4809 cpm. In addition, the activity at 1000 µg/mL (Homo sapiens, Fibroblast, 360 h, read-out: % of control (glucose incorporation)) turned out to be 15%.
